The subject of the assay is HSF1 pathway (HSP72 expression) in SK-OV-3 cells. Briefly: Cell-based ELISA (Cellisa) assay: HSP72 induction by 17-AAG in SK-OV-3 cells. The conditions noted are these: Homo sapiens, compound 1 h before 17-AAG (250 nM), then 18 h, HSP72 antibody, europium counts normalised to protein, 50% inhibitory concentration, read-out: SKOV3 Cellisa. As to the method:
U2OS cells (5-8×10^4 cells/mL) or SK-OV-3 cells (5-8×10^4 cells/mL) were seeded into 96-well plates and incubated at 37° C. for 48 h. […] Cells were then incubated for 18 h. The medium was removed washed 2× with PBS and cells were then fixed with fixing solution (4% paraformaldehyde, 0.3% TritonX-100 in PBS) for 30 min at 4° C. The plates were then washed 2× with PBS before blocking with 5% milk for 30 min at 37° C. After washing the plates 4× with 0.1% Tween-20/deionised water, HSP72 antibody (SPA-810, Enzo Life) was added for 1.5 h at 37° C. Following 4× washes, the plates were incubated with europium-labelled anti-mouse antibody (0.6 ug/ml) in Delfia assay buffer (Perkin Elmer) for 1 h at 37° C. After washing the plates, Delfia enhancement solution was added, shaken for 10 min before reading in the Envision plate reader (Perkin-Elmer) with excitation at 340 nm and emission at 615 nm. The plates were washed again before protein determination using the bicinchoninic acid assay (BCA assay, Pierce Biotechnology). The europium counts were normalised for the amount of protein in each well. The 50% inhibitory concentration value of the compound was then calculated.
Take `Cc1ccc2cc(C(=O)Nc3cc(NC(=O)c4ccc5c(c4)OC(C)C5)ccc3C)ccc2n1` (racemic) [Example 2, (rac)-2-Methyl-N-(2-methyl-5-(2-methyl-2,3-dihydrobenzofuran-6-carboxamido)phenyl)quinoline-6-carboxamide]: the IC50 was determined as 3400 nM. Turning to `Cc1ccc2cc(C(=O)Nc3cc(NC(=O)c4ccc5c(c4)OC(C)CO5)ccc3C)ccc2n1` (racemic) [Example 3, (rac)-2-Methyl-N-(2-methyl-5-(3-methyl-2,3-dihydrobenzo[b][1,4]dioxine-6-carboxamido)phenyl)quinoline-6-carboxamide], the IC50 was determined as 4100 nM.

Take `Cc1ccc2cc(C(=O)Nc3cc(NC(=O)c4ccc5c(c4)CC(C)O5)ccc3C)ccc2n1` (racemic) [Example 5, (rac)-2-Methyl-N-(2-methyl-5-(2-methyl-2,3-dihydrobenzofuran-5-carboxamido)phenyl)quinoline-6-carboxamide]: the IC50 was found to be 2900 nM. As for `Cc1ccc2cc(C(=O)Nc3cc(NC(=O)c4ccc5c(c4)OC(C)CO5)ccc3F)ccc2n1` (centres unmarked) [Example 4, N-(2-Fluoro-5-(3-methyl-2,3-dihydrobenzo[b][1,4]dioxine-6-carboxamido)phenyl)-2-methylquinoline-6-carboxamide], the figure is 8800 nM; as for `Cc1ccc2cc(C(=O)Nc3cc(NC(=O)c4ccc5c(c4)OCCC5)ccc3F)ccc2n1` [Example 6, N-(5-(Chroman-7-carboxamido)-2-fluorophenyl)-2-methylquinoline-6-carboxamide], 2700 nM; as for `Cc1ccc2cc(C(=O)Nc3cc(NC(=O)c4ccc5c(c4)OCCC5)ccc3Cl)ccc2n1` [Example 7, N-(2-Chloro-5-(chroman-7-carboxamido)phenyl)-2-methylquinoline-6-carboxamide], 1500 nM. In the case of `Cc1ccc2cc(C(=O)Nc3cc(NC(=O)c4ccc5c(c4)OCO5)ccc3C)ccc2n1` [Example 8, N-(5-(Benzo[d][1,3]dioxole-5-carboxamido)-2-methylphenyl)-2-methylquinoline-6-carboxamide] it was 130 nM. In the case of `Cc1ccc2cc(C(=O)Nc3cc(NC(=O)c4ccc5c(c4)OCC5)ccc3C)ccc2n1` [Example 9, N-(5-(2,3-Dihydrobenzofuran-6-carboxamido)-2-methylphenyl)-2-methylquinoline-6-carboxamide] it was 170 nM; in that of `Cc1ccc2cc(C(=O)Nc3cc(NC(=O)c4ccc5c(c4)CCO5)ccc3C)ccc2n1` [Example 10, N-(5-(2,3-dihydrobenzofuran-5-carboxamido)-2-methylphenyl)-2-methylquinoline-6-carboxamide], 1800 nM.

With `Cc1ccc2cc(C(=O)Nc3cc(NC(=O)c4ccc5ccoc5c4)ccc3C)ccc2n1` [Example 11, N-(5-(benzofuran-6-carboxamido)-2-methylphenyl)-2-methylquinoline-6-carboxamide], the IC50 worked out at 880 nM. As for `Cc1ccc2cc(C(=O)Nc3cc(NC(=O)c4ccc5c(c4)OCCCO5)ccc3C)ccc2n1` [Example 12, N-(5-(3,4-dihydro-2H-benzo[b][1,4]dioxepine-7-carboxamido)-2-methylphenyl)-2-methylquinoline-6-carboxamide], the figure is 670 nM.

Turning to `Cc1ccc2cc(C(=O)Nc3cc(NC(=O)c4ccc5c(c4)OCC5)ccc3F)ccc2n1` [Example 13, N-(5-(2,3-Dihydrobenzofuran-6-carboxamido)-2-fluorophenyl)-2-methylquinoline-6-carboxamide], the IC50 was 1800 nM. As for `Cc1ccc2cc(C(=O)Nc3cc(NC(=O)c4ccc5c(c4)OCC5)ccc3Cl)ccc2n1` [Example 14, N-(2-Chloro-5-(2,3-dihydrobenzofuran-6-carboxamido)phenyl)-2-methylquinoline-6-carboxamide], the figure is 2100 nM; as for `CCN1CCN(Cc2ccc3cc(C(=O)Nc4cc(NC(=O)c5ccc6c(c5)OCCC6)ccc4F)ccc3n2)CC1` [Example 15, N-(5-(Chroman-7-carboxamido)-2-fluorophenyl)-2-((4-ethylpiperazin-1-yl)methyl)quinoline-6-carboxamide], 1000 nM.

Turning to `CCN1CCN(Cc2ccc3cc(C(=O)Nc4cc(NC(=O)c5ccc6c(c5)OCC6)ccc4C)ccc3n2)CC1` [Example 16, N-(5-(2,3-Dihydrobenzofuran-6-carboxamido)-2-methylphenyl)-2-((4-ethylpiperazin-1-yl)methyl)quinoline-6-carboxamide], the IC50 stood at 120 nM. As for `CCN1CCN(Cc2ccc3cc(C(=O)Nc4cc(NC(=O)c5ccc6c(c5)OCC6)ccc4F)ccc3n2)CC1` [Example 17, N-(5-(2,3-Dihydrobenzofuran-6-carboxamido)-2-fluorophenyl)-2-((4-ethylpiperazin-1-yl)methyl)quinoline-6-carboxamide], the figure is 780 nM; as for `CCN1CCN(Cc2ccc3cc(C(=O)Nc4cc(NC(=O)c5ccc6c(c5)OCC6)ccc4Cl)ccc3n2)CC1` [Example 18, N-(2-Chloro-5-(2,3-dihydrobenzofuran-6-carboxamido)phenyl)-2-((4-ethylpiperazin-1-yl)methyl)quinoline-6-carboxamide], 640 nM. In the case of `O=C(Nc1ccc(F)c(NC(=O)c2ccc3nc(CN4CCC4)ccc3c2)c1)c1ccc2c(c1)OCC2` [Example 19, 2-(Azetidin-1-ylmethyl)-N-(5-(2,3-dihydrobenzofuran-6-carboxamido)-2-fluorophenyl)quinoline-6-carboxamide] it was 3100 nM; in that of `O=C(Nc1ccc(Cl)c(NC(=O)c2ccc3nc(CN4CCC4)ccc3c2)c1)c1ccc2c(c1)OCCC2` [Example 20, 2-(Azetidin-1-ylmethyl)-N-(2-chloro-5-(chroman-7-carboxamido)phenyl)quinoline-6-carboxamide], 3800 nM. As to `O=C(Nc1ccc(Cl)c(NC(=O)c2ccc3nc(CN4CCC4)ccc3c2)c1)c1ccc2c(c1)OCC2` [Example 21], the IC50 is 1800 nM.

The values above are taken from patent US10647678B2 (Cancer Research Technology Limited, priority 2015, dated 2020).
